Consider two compounds from publication PMC9317718 (Molecules, 2022).

Data set [1] has as its target T1, CYP2C19 (Homo sapiens, UniProt P33261). To be noted: recombinant enzyme, 5 μM, pH 7.4.
Data set [2] has as its system CYP2C19. To be noted: rat liver after 7-days i.g. treatment, low-, medium- and high-dose groups. The procedure:
To investigate the molecular mechanisms in the activity of the CYP enzymes, the level of CYP protein in the liver of rats was examined.
In this study, the grouping and administration methods were as described in the step of “Pharmacokinetic study of the probe substrate in vivo”. On the 8th day, the blood was allowed to drain through the aorta and the liver was excised quickly, […]. The liver tissue was stored at −80 °C until analysis.
Then, a piece of the liver tissue was separately homogenized and lysed in RIPA buffer with 1% proteinase inhibitor phenylmethylsulfonyl fluoride (PMSF). […] The protein levels were quantified by a BCA Assay Kit. The samples were boiled at 100 °C for 10 min. Equal amounts of protein lysates were separated on 10% SDS-polyacrylamide gels by electrophoresis and then transferred onto nitrocellulose membranes. The membranes were blocked in 5% non-fat milk. […] In addition, images were captured using an Odyssey Infra-red Imaging System v3.0.16 (LI-COR Biosciences, Lincoln, NE, USA), and quantified by densitometry scanning using ImageJ Analysis software (National Institutes of Health, Bethesda, MD, USA).

Data set [3] in a line: in vitro. To be noted: male, Sprague-Dawley, rat, microsomes, pH 7.4.
Data set [4] deals with T1, CYP2C19. The experiment in a line: in vitro. Particulars: recombinant enzyme, pH 7.4.
The target in data set [5] is T2, CYP2E1 (Homo sapiens, UniProt P05181). The experiment in a line: in vitro. Particulars: recombinant enzyme, pH 7.4.
T2 sequence (P05181 whole entry): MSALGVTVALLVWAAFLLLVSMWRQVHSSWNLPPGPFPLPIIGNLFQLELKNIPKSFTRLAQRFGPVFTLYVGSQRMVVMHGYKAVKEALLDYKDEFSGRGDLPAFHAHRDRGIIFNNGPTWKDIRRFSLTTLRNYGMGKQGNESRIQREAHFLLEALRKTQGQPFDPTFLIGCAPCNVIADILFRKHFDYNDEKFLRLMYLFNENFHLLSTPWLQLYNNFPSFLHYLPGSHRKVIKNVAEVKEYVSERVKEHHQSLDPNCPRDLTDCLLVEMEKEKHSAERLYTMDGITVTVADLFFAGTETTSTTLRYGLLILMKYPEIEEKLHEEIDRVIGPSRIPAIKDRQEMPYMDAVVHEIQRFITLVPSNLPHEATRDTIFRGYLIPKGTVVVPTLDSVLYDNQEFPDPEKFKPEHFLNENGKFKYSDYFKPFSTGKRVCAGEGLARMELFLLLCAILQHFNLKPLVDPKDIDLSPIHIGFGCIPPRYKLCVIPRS
Data set [6] can be described thus: in vitro. To be noted: for CLint: microsomes. The text has this:
Km is defined as the characteristic constant of the enzyme, which represent the […] (Vmax). The values of Vmax and Km are based on the nonlinear regression analysis of the Michaelis-Menten equation, V = Vmax × S/(Km + S). The kinetic parameters were adopted through the following parameters: S, Vmax, and V. All of these parameters represented the substrate concentration, the maximum velocity of metabolism, and the velocity of metabolism, respectively. CLint (the different ability of the organism in eliminating the particular chemical substances) is defined as Vmax/Km, which reflected the different ability of the organism in eliminating the particular chemical substances.

The test system of data set [7] is CYP3A4. To be noted: rat, in vivo.
Data set [8] concerns the target T3, CYP1A2 (Rattus norvegicus, UniProt P04799).
T3 sequence (P04799 1-513): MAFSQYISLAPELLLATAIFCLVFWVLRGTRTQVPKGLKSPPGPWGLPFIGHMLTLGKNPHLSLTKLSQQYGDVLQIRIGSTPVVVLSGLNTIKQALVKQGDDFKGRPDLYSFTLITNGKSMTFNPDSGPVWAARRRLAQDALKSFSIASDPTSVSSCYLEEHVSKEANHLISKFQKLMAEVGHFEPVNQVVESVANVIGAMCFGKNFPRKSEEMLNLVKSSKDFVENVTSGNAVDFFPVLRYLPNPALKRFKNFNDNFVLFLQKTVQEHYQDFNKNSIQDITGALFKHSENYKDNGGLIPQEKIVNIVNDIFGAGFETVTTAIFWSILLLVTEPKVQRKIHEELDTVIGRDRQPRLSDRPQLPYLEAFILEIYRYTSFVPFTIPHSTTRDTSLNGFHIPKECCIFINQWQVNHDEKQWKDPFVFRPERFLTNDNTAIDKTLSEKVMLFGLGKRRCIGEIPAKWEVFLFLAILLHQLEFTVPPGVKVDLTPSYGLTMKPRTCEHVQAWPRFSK
To be noted: in vivo.

Data set [9] has as its target T4, CYP1A2 (Homo sapiens, UniProt P05177).
T4 construct: purchased RILD (Research Institute for Liver Diseases Co., Ltd., Shanghai, China)
The experiment in a line: Degradation in single recombinant CYP1A2. In kind it is in vitro ADME. To be noted: 5 μM compound, single enzyme CYP1A2; for speed constant k in CYP1A2: t in min; for half-life at 5 μM: human, recombinant CYP1A2, pH 7.4, read-out: t1/2 in CYP1A2.
T4 sequence (P05177 whole entry): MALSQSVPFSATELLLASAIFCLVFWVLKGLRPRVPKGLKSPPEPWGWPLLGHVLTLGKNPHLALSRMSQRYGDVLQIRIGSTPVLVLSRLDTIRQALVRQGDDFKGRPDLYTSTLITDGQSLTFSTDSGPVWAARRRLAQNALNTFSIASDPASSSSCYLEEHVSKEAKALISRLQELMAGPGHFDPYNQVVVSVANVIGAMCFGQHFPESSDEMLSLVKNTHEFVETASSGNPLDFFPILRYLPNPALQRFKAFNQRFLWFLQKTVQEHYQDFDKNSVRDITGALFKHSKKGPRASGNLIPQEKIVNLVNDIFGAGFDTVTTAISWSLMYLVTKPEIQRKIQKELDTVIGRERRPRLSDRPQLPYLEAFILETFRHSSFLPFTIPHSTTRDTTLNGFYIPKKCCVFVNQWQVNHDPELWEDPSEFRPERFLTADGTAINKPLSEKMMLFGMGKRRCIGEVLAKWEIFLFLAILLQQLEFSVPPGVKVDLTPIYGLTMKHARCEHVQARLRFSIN

Data set [10] has as its target T5, CYP3A4 (Homo sapiens, UniProt P08684). The experiment in a line: in vitro. To be noted: pH 7.4, probe testosterone 0.01 mM.
Target sequence in this assay (P08684 2-503): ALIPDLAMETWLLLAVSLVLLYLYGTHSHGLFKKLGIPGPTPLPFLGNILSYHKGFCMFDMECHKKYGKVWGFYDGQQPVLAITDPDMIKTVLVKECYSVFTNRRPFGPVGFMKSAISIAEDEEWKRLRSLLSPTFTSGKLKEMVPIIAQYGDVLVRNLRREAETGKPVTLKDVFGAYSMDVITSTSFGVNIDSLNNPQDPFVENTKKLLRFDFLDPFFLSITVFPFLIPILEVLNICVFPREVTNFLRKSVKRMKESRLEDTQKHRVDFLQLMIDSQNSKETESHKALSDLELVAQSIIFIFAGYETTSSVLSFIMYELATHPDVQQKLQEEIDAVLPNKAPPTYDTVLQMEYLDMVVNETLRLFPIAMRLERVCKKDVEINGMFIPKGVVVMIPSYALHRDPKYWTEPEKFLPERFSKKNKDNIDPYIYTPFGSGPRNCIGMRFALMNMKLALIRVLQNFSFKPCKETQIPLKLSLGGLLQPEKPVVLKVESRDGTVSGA
For data set [11], the target named is T2, CYP2E1. To be noted: recombinant enzyme, 5 μM, pH 7.4.
Data set [12] deals with T5, CYP3A4. Nature of the data set: Degradation in single recombinant CYP3A4. Set-up: purchased RILD (Research Institute for Liver Diseases Co., Ltd., Shanghai, China). To be noted: 5 μM compound, single enzyme CYP3A4; for speed constant k in CYP3A4: t in min; for half-life at 5 μM: human, recombinant CYP3A4, pH 7.4, read-out: t1/2 in CYP3A4. In kind it is in vitro ADME.
Target sequence in this assay (P08684 whole entry): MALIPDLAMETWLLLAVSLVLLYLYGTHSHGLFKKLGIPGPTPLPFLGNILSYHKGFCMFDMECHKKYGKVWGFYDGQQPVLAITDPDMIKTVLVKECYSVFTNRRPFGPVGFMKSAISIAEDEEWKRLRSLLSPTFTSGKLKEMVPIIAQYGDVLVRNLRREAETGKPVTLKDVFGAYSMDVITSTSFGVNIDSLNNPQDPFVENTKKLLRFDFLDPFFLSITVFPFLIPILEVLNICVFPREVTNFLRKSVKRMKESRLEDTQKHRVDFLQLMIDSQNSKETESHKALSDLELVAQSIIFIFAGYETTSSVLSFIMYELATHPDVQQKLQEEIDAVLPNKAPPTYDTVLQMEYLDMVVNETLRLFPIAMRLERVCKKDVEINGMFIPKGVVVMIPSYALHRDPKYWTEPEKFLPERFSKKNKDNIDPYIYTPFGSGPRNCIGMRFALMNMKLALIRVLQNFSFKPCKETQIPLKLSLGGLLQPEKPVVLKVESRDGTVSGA
The nature of data set [13]: in vitro. To be noted: human, microsomes, pH 7.4.
Data set [14] deals with T2, CYP2E1. Nature of the data set: biochemical. The procedure:
(§1) The mixed probe substrate consisted of testosterone 0.01 mM for CYP3A4, phenacetin 0.02 mM for CYP1A2, chlorzoxazone 0.02 mM for CYP2E1, and omeprazole 0.01 mM for CYP2C19, respectively. […] Other procedure was accorded to above step of 2.6 “Microsomal incubation conditions”.

The target of data set [15] is T1, CYP2C19. Nature of the data set: biochemical. The procedure: as §1
Data set [16] has as its target T6, CYP1A2 (Homo sapiens, UniProt P05177).
T6 sequence (P05177 2-516): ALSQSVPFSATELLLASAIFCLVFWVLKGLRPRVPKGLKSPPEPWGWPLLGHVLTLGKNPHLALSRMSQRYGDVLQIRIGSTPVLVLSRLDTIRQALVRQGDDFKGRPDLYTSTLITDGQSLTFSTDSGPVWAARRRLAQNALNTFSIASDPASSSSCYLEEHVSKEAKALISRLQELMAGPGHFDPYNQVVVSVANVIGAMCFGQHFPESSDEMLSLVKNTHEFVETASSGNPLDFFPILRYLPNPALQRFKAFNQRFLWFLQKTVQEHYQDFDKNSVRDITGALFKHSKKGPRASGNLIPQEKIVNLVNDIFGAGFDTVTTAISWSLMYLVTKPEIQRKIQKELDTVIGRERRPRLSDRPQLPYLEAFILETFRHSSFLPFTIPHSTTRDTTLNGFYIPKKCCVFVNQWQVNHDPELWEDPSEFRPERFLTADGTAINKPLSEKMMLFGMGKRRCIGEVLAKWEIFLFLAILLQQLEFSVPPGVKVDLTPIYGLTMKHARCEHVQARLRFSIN
The experiment in a line: Inhibition of CYP1A2 activity in vitro (probe phenacetin). Format: in vitro ADME. Particulars: compound 0-80 μM; probe phenacetin 0.02 mM. On the procedure: as §1

T1 sequence (P33261 whole entry): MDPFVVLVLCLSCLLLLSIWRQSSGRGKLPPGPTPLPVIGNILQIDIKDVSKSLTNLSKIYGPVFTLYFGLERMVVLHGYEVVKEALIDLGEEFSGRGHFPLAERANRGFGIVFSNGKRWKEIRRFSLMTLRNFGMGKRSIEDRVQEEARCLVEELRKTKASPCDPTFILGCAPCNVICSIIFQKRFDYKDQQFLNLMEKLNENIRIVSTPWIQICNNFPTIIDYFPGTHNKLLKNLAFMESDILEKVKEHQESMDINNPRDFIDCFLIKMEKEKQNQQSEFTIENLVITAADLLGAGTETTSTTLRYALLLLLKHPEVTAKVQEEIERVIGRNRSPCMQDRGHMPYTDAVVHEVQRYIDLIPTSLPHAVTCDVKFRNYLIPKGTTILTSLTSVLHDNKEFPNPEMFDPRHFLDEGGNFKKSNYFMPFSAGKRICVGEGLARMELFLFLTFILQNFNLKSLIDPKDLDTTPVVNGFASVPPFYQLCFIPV

In the case of `COc1cc(/C=C/C(=O)CC(=O)/C=C/c2ccc(O)c(OC)c2)ccc1O` [curcumin], the “speed constant k in CYP2C19” value at CYP2C19 [1] is listed as 0.011 ± 0.0017. Moreover, in the data set on CYP2C19 [2], the “protein level of CYP2C19 vs control in vivo” value is on record as “decreased”. The half-life is 0.372 h in the data set “in vitro [3]” and 2.89 h in the data set “in vitro [13]”. The half-life at 5 μM at CYP2C19 [4] turned out to be 1.05 h; on CYP2E1 [5], 1.16 h; at CYP1A2 [9], 5.02 h; on CYP3A4 [12], 0.642 h. Also, the Km at 15 min in the data set “in vitro [6]” (Sprague-Dawley, rat, pH 7.4) is 48.5 ± 8.27 µM; in the data set “in vitro [6]” (human), 16.6 ± 4.3 µM. Moreover, the CLint was 0.2435 mL/min/(mg of Protein) in the data set “in vitro [6]” (human) and 0.3226 mL/min/(mg of Protein) in the data set “in vitro [6]” (rat). In the data set on CYP3A4 [7], the “metabolic rate of midazolam with increasing dose of compound” value is “decreased”. Also, the “metabolic rate of phenacetin with increasing dose of compound” value at CYP1A2 [8] is given as “decreased”. Besides, on CYP1A2 [9], the “speed constant k in CYP1A2” value worked out at 0.0023 ± 0.0006. Further, inhibition against CYP3A4 [10] was half-maximal at 24.3 µM (IC50 at 120 min). Moreover, the “speed constant k in CYP2E1” value at CYP2E1 [11] is listed as 0.01 ± 0.0024. The “speed constant k in CYP3A4” value on CYP3A4 [12] stood at 0.018 ± 0.0035. The IC50 against CYP2E1 [14] was greater than 80 µM; against CYP2C19 [15], 11.9 µM; at CYP1A2 [16], greater than 80 µM.
For the compound `CC(C)=C1C/C=C(\C)CC/C=C(\C)CC1=O` [germacrone], at CYP2C19 [1], the “speed constant k in CYP2C19” value amounted to 0.012 ± 0.0032. In addition, the half-life in the data set “in vitro [3]” was determined as 0.3 h; in “in vitro [13]” it was 0.273 h. Also, the half-life at 5 μM stood at 0.963 h at CYP2C19 [4], 1.16 h at CYP2E1 [5], 1.44 h on CYP1A2 [9] and 0.608 h at CYP3A4 [12]. Further, the Km at 15 min in “in vitro [6]” (Sprague-Dawley, rat, pH 7.4) was 49.6 ± 11.1 µM; in “in vitro [6]” (human), 44.8 ± 5.47 µM. The CLint in “in vitro [6]” (human) is given as 0.3298 mL/min/(mg of Protein); in the data set “in vitro [6]” (rat), 0.2763 mL/min/(mg of Protein). For the same compound, in the data set on CYP3A4 [7], the “metabolic rate of midazolam with increasing dose of compound” value is recorded as “increased”. Besides, the “metabolic rate of phenacetin with increasing dose of compound” value on CYP1A2 [8] was “increased”. Further, the “speed constant k in CYP1A2” value at CYP1A2 [9] came out at 0.008 ± 0.001. On CYP3A4 [10], this compound showed a 50% inhibitory concentration (IC50) at 120 min of 3.57 µM. The “speed constant k in CYP2E1” value at CYP2E1 [11] is reported as 0.01 ± 0.0017. The “speed constant k in CYP3A4” value at CYP3A4 [12] amounted to 0.019 ± 0.0064. In addition, the IC50 is greater than 80 µM on CYP2E1 [14], 17.8 µM against CYP2C19 [15] and 78.1 µM against CYP1A2 [16].
